GI50 and TGI data for ten molecules are collected here from PubChem BioAssay (NCI).

Test systems include CCRF-CEM leukemia; T-47D breast; UO-31 renal; NCI-H460 lung; DU-145 prostate; SNB-75 CNS; 786-0 renal; OVCAR-8 ovarian; PC-3 prostate; EKVX NSCLC.
Holding throughout (assay): NCI tumour cell line growth inhibition, 48 h

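Tested at 5 concentrations; 48 h exposure; 96-well plates; endpoints linearly interpolated, else capped at highest concentration. Abbreviation: GI50, concentration required for 50% inhibition of growth. TGI is the concentration that stops growth completely.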 Bounds are passed on as bounds.

For the molecule `CCOC(=O)C1=C(C)NC2SC(=O)/C(=C\c3ccccc3O)N2C1c1ccccc1` (stereo not drawn), the GI50 with CCRF-CEM leukemia was 10.2 µM; with T-47D breast, 16.1 µM; in the assay with UO-31 renal, 21.9 µM; in the assay on NCI-H460 lung it was 24.3 µM; with DU-145 prostate, 30.5 µM; in the assay on SNB-75 CNS, 20.4 µM. Moreover, the GI50 in the assay on 786-0 renal was 28.6 µM; with OVCAR-8 ovarian, 24.6 µM; in the assay with PC-3 prostate, 26.5 µM; in the assay on EKVX NSCLC, 34.1 µM. The TGI in the assay on CCRF-CEM leukemia is 75.2 µM; with T-47D breast, 51.7 µM; in the assay with UO-31 renal, 66.8 µM; in the assay on NCI-H460 lung it was 79.4 µM; with DU-145 prostate, above 100 µM; in the assay with SNB-75 CNS, 70.8 µM. The TGI with 786-0 renal was above 100 µM; in the assay on OVCAR-8 ovarian it was 61.6 µM; with PC-3 prostate, 74.1 µM; in the assay on EKVX NSCLC, above 100 µM.

Take `c1ccc(-c2cc(C3CO3)c3ccccc3n2)cc1` (stereo not drawn): the TGI is above 100 µM with CCRF-CEM leukemia; 65.8 µM with T-47D breast; 3.51 µM with UO-31 renal; 39.1 µM with NCI-H460 lung; 34.7 µM with DU-145 prostate; 62.6 µM with SNB-75 CNS. For the same molecule, the TGI stood at 29.3 µM with 786-0 renal, 43.2 µM with OVCAR-8 ovarian, 41.2 µM in the assay on PC-3 prostate and 34.1 µM in the assay with EKVX NSCLC.

Take `O=[N+]([O-])c1ccc2c(N3CCC(CCCC4CCN(c5ncnc6cc([N+](=O)[O-])ccc56)CC4)CC3)ncnc2c1`: the GI50 is 44.7 µM in the assay on CCRF-CEM leukemia; 0.454 µM with T-47D breast; 27.3 µM in the assay with UO-31 renal; 23.9 µM in the assay with NCI-H460 lung; above 96.2 µM in the assay on DU-145 prostate; above 39.6 µM in the assay on SNB-75 CNS. Also, the values for the GI50 with 786-0 renal, with OVCAR-8 ovarian and with PC-3 prostate were above 46 µM, 1.62 µM and 8.96 µM, respectively. The TGI was above 100 µM with CCRF-CEM leukemia; above 69.3 µM in the assay on T-47D breast; above 100 µM with UO-31 renal; above 100 µM in the assay on NCI-H460 lung; above 100 µM in the assay with DU-145 prostate; above 71.2 µM in the assay with SNB-75 CNS. The TGI is above 86.2 µM with 786-0 renal, above 100 µM in the assay with OVCAR-8 ovarian and above 100 µM in the assay on PC-3 prostate.

As to `CN=C(NC#N)NCCSCc1nc[nH]c1C`, the TGI with CCRF-CEM leukemia was above 100 µM; in the assay with T-47D breast it was above 100 µM; with UO-31 renal, above 100 µM; in the assay with NCI-H460 lung, above 100 µM; in the assay on DU-145 prostate, above 100 µM; in the assay with SNB-75 CNS it was 79.3 µM. Further, the TGI with 786-0 renal, in the assay on OVCAR-8 ovarian and in the assay with PC-3 prostate was above 100 µM in each case.

`O=C(Nc1ccc(CN2CCOCC2)cc1)c1[nH]ncc1Nc1ncnc2sccc12`: the GI50 in the assay on CCRF-CEM leukemia is 0.337 µM; with T-47D breast it was 0.739 µM; with NCI-H460 lung it was 0.314 µM; in the assay on DU-145 prostate, 0.382 µM; with SNB-75 CNS, 0.0174 µM; with 786-0 renal it was 0.48 µM. Moreover, the GI50 was 0.522 µM with OVCAR-8 ovarian, 0.494 µM with PC-3 prostate and 0.805 µM in the assay with EKVX NSCLC. The TGI is 27.7 µM in the assay with CCRF-CEM leukemia; above 100 µM in the assay on T-47D breast; 10.9 µM with NCI-H460 lung; 15.5 µM in the assay on DU-145 prostate; 2.04 µM in the assay on SNB-75 CNS; 7.96 µM in the assay with 786-0 renal. The figures for the TGI in the assay with OVCAR-8 ovarian, in the assay on PC-3 prostate and in the assay on EKVX NSCLC were 22.4 µM, above 100 µM and 4.3 µM, respectively.

`CN(C)c1ccc(/C=C2\N=C(c3ccc([N+](=O)[O-])cc3)OC2=O)cc1`: the TGI in the assay on CCRF-CEM leukemia was 97.9 µM; with T-47D breast, above 100 µM; in the assay on NCI-H460 lung it was above 100 µM; in the assay with DU-145 prostate, above 100 µM; in the assay with SNB-75 CNS, above 100 µM; in the assay with 786-0 renal, above 100 µM. Also, the TGI in the assay on OVCAR-8 ovarian, with PC-3 prostate and in the assay with EKVX NSCLC was above 100 µM in each case.

In the case of `COc1ccc(-c2nn(-c3cccc(NC(=O)c4ccc5c(c4)OCCO5)c3)cc2-c2ccncc2)cc1Cl`, the GI50 in the assay on CCRF-CEM leukemia was 1.68 µM; with T-47D breast, 2.96 µM; with UO-31 renal, 2.57 µM; with NCI-H460 lung, 2.67 µM; with DU-145 prostate, 3.99 µM; with SNB-75 CNS, 0.602 µM. Besides, the values for the GI50 in the assay on 786-0 renal, with OVCAR-8 ovarian and with PC-3 prostate were 1.78 µM, 2.47 µM and 2.12 µM, respectively. Also, the TGI worked out at 10.3 µM in the assay with CCRF-CEM leukemia; 47.7 µM in the assay with T-47D breast; 17.3 µM in the assay with UO-31 renal; 15.6 µM in the assay with NCI-H460 lung; 24.9 µM in the assay with DU-145 prostate; 3.5 µM in the assay with SNB-75 CNS. Also, the TGI in the assay with 786-0 renal was 5.91 µM; with OVCAR-8 ovarian, above 100 µM; in the assay on PC-3 prostate, 18.1 µM.

Turning to `C=CC(C)(O)/C=C/C=C(\C)C(CC1OC1(C)C)OC(=O)/C(C)=C\C` (stereo not drawn), the TGI in the assay with T-47D breast, in the assay with UO-31 renal, in the assay on NCI-H460 lung, in the assay on DU-145 prostate, with SNB-75 CNS and with 786-0 renal was above 100 µM each time. Moreover, the TGI with OVCAR-8 ovarian, with PC-3 prostate and in the assay on EKVX NSCLC was above 100 µM in each case.

As to `O=S(=O)(O)c1ccc(-c2nnc(-c3ccccn3)nc2-c2ccc(S(=O)(=O)O)o2)o1`, the TGI with T-47D breast, in the assay with UO-31 renal, with NCI-H460 lung, in the assay on DU-145 prostate, in the assay with SNB-75 CNS and in the assay on 786-0 renal was above 100 µM each time. The TGI in the assay on OVCAR-8 ovarian, with PC-3 prostate and in the assay on EKVX NSCLC was above 100 µM in each case.

In the case of `CO/N=C(\C)c1cccc(Nc2cc(-c3ccccc3)nc3c(O)cccc23)c1`, the GI50 was 2.57 µM with CCRF-CEM leukemia; 4.32 µM with T-47D breast; 4.58 µM with UO-31 renal; 9.2 µM with DU-145 prostate; 20.5 µM in the assay with SNB-75 CNS; 0.307 µM with 786-0 renal. Besides, the GI50 in the assay on OVCAR-8 ovarian is 5.52 µM; with PC-3 prostate, 4.13 µM; with EKVX NSCLC, 17.4 µM. Besides, the TGI with CCRF-CEM leukemia came out at 8.74 µM; in the assay on T-47D breast, 26.7 µM; in the assay with UO-31 renal it was 60.5 µM; in the assay on DU-145 prostate it was 28 µM; in the assay with SNB-75 CNS it was 96.2 µM; in the assay with 786-0 renal, 3.38 µM. Also, the figures for the TGI in the assay with OVCAR-8 ovarian, in the assay with PC-3 prostate and with EKVX NSCLC were 25.9 µM, 24.3 µM and 59.6 µM, respectively.
